Data on one compound can be found in patent US20200308192A1, “NOVEL THIAZOLO[5,4-D]PYRIMIDINE DERIVATIVES AS INVERSE AGONISTS OF A2A ADENOSINE RECEPTORS” (Universita degli Studi di Ferrara, priority 2016, published 2020).

Experiment [1] has as its target T1, human adenosine A3 receptor (Homo sapiens, UniProt P0DMS8).
T1 construct: expressed in transfected cells; host or cells: CHO cells (membrane preparation)
T1 sequence (P0DMS8 1-318): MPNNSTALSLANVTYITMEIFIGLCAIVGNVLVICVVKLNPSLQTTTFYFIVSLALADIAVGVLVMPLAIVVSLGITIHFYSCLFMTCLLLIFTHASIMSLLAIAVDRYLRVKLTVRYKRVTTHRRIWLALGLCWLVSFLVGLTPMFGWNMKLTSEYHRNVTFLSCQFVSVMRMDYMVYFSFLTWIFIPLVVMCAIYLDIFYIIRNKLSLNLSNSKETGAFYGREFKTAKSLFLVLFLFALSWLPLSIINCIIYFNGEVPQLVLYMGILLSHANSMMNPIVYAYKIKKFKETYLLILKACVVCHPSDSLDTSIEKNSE
Kind of experiment: Competition binding, [125I]-ABMECA, hA3 CHO membranes. The note with it: mean ± SEM.

Experiment [2] relates to Female CD1 mice. In words: Writhing test (acetic acid-induced abdominal constrictions). It counts as in vivo. The procedure: (§1) Female CD1 mice (22-24 g) were obtained from Charles River (Milano, Italia). The animals were kept under standard environmental temperature conditions (22±2° C.) and under moisture-controlled conditions with 12 hours light/dark cycle and food and water ad libitum. The animals were acclimated to the laboratory settings for at least 1 hour before testing and were used only once throughout the experiments. All the procedures used in the present study were carried out in accordance with the European Communities Council Directives (86/609/EEC) and the National Laws and Policies (D.L.116/92) after authorization from the Italian Ministry for Health (4/2014-B). In addition, the experimental procedures were in agreement with the current guidelines for the care of laboratory animals and the ethical guidelines for investigations of experimental pain in conscious animals (Couto M. Methods Mol Biol 2011; 770:579-599).
The acetic acid-induced writhing response was performed after intraperitoneal injection of 10 ml/Kg of 0.6% acetic acid solution. The response to the abdominal constrictions induced by acetic acid was evaluated after the intraperitoneal injection of 10 ml/kg of a 0.6% solution of acetic acid. The compounds under evaluation were dissolved in DMSO and then diluted in a saline solution. The carrier consists of saline solution and 5% of DMSO. A writhe is indicated by stretching of the abdomen followed by the extension of the hind limbs. The animals (8 mice per group) were placed singly in a glass cylinder and the number of writhing episodes of abdominal contractions was counted in a 30 minutes period. The compounds were administered intraperitoneally 15 minutes before injection of acetic acid solution.
(§2) The statistical analysis of the data was performed using ANOVA followed by Dunnett's test. […] KH and KL were obtained by using a two sites binding model and Graph PAD Prism (San Diego, Calif., USA). The values of IC50 obtained in the cAMP assays were calculated by non-linear regression analysis using the equation for a sigmoid concentration-response curve. All data are expressed as the mean±SEM of four independent experiments each performed in duplicate for in vitro assays and n=8-10 mice/group for in vivo assays.

Experiment [3] concerns Female CD1 mice. In words: Warm-water tail immersion test. It counts as in vivo. The settings on record: intraperitoneal. On the procedure: as §1
The warm-water tail immersion assay was performed using a water thermostated bath at a temperature maintained at 52° C. The compounds under evaluation were dissolved in DMSO and then diluted in saline solution. The carrier consists of saline solution and 5% of DMSO. Before intraperitoneally injecting the compound, the natural time of response of the mice was determined and the distal part of the tail was then immersed in the thermostated bath. The latency in responding to the heat stimulus with a vigorous flexion of the tail was measured by means of a manual stopwatch. A 20 seconds maximum cut-off time was imposed to prevent tissue damage. The latency of the tail withdrawal was then tested 15 minutes after injection of the compound.
as §2

The target of experiment [4] is T2, human adenosine A1 receptor (Homo sapiens, UniProt P30542).
T2 sequence (P30542 1-326): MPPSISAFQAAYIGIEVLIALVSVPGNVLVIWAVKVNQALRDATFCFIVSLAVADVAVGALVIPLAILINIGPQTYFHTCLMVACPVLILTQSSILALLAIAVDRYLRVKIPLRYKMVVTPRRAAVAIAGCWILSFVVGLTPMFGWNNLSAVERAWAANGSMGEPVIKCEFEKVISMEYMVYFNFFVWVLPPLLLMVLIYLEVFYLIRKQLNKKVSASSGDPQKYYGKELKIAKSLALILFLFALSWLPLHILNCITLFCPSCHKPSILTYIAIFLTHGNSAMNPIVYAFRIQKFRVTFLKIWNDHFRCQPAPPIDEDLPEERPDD
In words: Competition binding, [3H]-DPCPX, hA1 CHO membranes. The note with it: read-out: Receptor hA1 Ki, mean ± SEM.

Experiment [5] concerns the target human adenosine A2A receptor (Homo sapiens, UniProt P29274). Kind of experiment: Competition binding, [3H]-ZM 241385, hA2A CHO membranes.
Experiment [6] addresses T3, human adenosine A2B receptor (Homo sapiens, UniProt P29275).
T3 sequence (P29275 1-332): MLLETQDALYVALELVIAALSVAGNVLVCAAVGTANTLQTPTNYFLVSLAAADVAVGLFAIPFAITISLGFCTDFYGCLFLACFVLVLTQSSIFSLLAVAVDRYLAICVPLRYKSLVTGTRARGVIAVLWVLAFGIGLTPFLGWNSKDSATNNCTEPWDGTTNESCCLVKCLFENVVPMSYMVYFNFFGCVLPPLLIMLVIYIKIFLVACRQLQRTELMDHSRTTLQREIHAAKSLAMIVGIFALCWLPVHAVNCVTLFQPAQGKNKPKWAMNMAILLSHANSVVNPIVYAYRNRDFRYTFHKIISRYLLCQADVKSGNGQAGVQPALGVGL
Kind of experiment: cAMP assay, inhibition of NECA-stimulated cAMP levels in hA2B CHO cells. The settings on record: read-out: Receptor hA2B IC50; cAMP stimulated by NECA (100 nM); mean ± SEM.

Sequence of human adenosine A2A receptor (P29274 whole entry): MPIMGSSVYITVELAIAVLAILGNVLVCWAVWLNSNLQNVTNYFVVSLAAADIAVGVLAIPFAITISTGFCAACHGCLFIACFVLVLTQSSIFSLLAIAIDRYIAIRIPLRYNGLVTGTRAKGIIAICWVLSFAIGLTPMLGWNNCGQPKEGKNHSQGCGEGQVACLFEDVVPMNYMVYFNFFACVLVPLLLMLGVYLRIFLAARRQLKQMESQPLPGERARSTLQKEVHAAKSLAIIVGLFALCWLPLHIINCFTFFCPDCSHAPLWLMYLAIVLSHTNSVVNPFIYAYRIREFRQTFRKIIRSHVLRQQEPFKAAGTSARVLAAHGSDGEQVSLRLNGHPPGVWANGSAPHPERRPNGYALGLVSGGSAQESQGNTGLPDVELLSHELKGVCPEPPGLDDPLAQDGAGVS

For the compound `COc1ccccc1CNc1nc(N)c2nc(-c3ccco3)sc2n1` [Compound 1, 2-(furan-2-yl)-N^5-(2-methoxybenzyl)[1,3]thiazolo[5,4-d]pyrimidin-5,7-diamine], the results for the inhibition constant (Ki) in experiment [1], in experiment [4] and in experiment [5] were 36 ± 3 nM, 3.54 ± 0.32 nM and 6.45 ± 0.57 nM, respectively. The ED50 was found to be 0.0328 ± 0.0021 mg/kg with Female CD1 mice [2] (Mus musculus, ip, intraperitoneal, 15 minutes before acetic acid) and 0.134 ± 0.011 mg/kg in the experiment on Female CD1 mice [3] (Mus musculus, ip, 0.25 h, 52° C., 15 minutes after injection). For the same compound, the “Dose-response curve, Writhing Test” value with Female CD1 mice [2] (P<0.001, one-way ANOVA) is reported as “dose-dependent effect”. In the experiment on Female CD1 mice [2] (intraperitoneal), the “ED50 times lower than ZM 241385, Writhing Test” value is on record as “approximately 42 times”. Further, the “ED50 times lower than morphine, Writhing Test” value with Female CD1 mice [2] (intraperitoneal) is 3.75 times. Moreover, the “Anti-nociceptive activity, tail immersion test” value in the experiment with Female CD1 mice [3] is “highest analgesic activity”. Besides, the “Minimum effective dose, tail immersion test” value in the experiment on Female CD1 mice [3] is 0.01 mg/kg. Moreover, in experiment [6], the IC50 stood at 313 ± 29 nM.
